For assay [1], the system named is fresh multiple myeloma tumor cells. Nature of the assay: ADCC (51Cr release) of fresh multiple myeloma tumor cells. It counts as cell-based, human. Particulars: in words. As to the method: Daudi-luc cells, fresh multiple myeloma tumor cells, fresh Plasma Cell Leukemia tumor cells and JK6L and AMO-1 multiple myeloma cells were collected (5×10^6 cells) in RPMI^++ (RPMI 1640 culture medium supplemented with 10% cosmic calf serum (HyClone, Logan, UT, USA)), to which 100 μCi ^51Cr (Chromium-51; Amersham Biosciences Europe GmbH, Roosendaal, The Netherlands) was added, and the mixture was incubated in a 37° C. water bath for 1 hr. After washing of the cells (twice in PBS, 1500 rpm, 5 min), the cells were resuspended in RPMI^++ and counted by trypan blue exclusion. Cells were brought at concentration of 1×10^5 cells/ml.
Fresh peripheral blood mononuclear cells (healthy volunteers, UMC Utrecht, Utrecht, The Netherlands) were isolated from 40 ml of heparin blood by Ficoll (Bio Whittaker; lymphocyte separation medium, cat 17-829E) according to the manufacturer's instructions. After resuspension of cells in RPMI^++, cells were counted by trypan blue exclusion and brought at concentration of 1×10^7 cells/ml.
50 μl of ^51Cr-labeled targets cells were pipetted into 96-well plates, and 50 μl of antibody was added, diluted in RPMI^++ (final concentrations 10, 1, 0.1, 0.01 μg/ml). […] After spinning down cells (1500 rpm, 5 min), 100 μl of supernatant was harvested into micronic tubes, and counted in gamma counter. The percentage specific lysis was calculated as follows: […]

Assay [2] concerns PBMCs. Description: Induction of IL-6 release by PBMC. It counts as cell-based, human. Particulars: 20 μg/ml antibody and 10 ng/ml LPS, 7 donors. As to the method: (§1) -003, -005 and -024 were tested in an assay as described in Ausiello et al., Tissue antigens 56, 538-547 (2000). Briefly, PBMCs were cultured at 1×10^6 cells/well in 48-well plates in the presence of 20 μg/ml of antibodies and 10 ng/ml LPS (Sigma-Aldrich Chemie, Zwijndrecht, The Netherlands) in 500 μl RPMI^++. After an O/N incubation at 37° C., supernatant was harvested and stored at −20° C. The IL-6 concentration was assessed by ELISA (IL-6 ELISA kit, U-CyTech Biosciences, Utrecht, The Netherlands) according to the manufacturer's instructions. Data are shown mean concentration in pg/ml (±SEM) from 7 donors.

The subject of assay [3] is PBMCs. Description: Induction of proliferation of PBMC. It counts as cell-based, human. The settings on record: 1.1-30 μg/ml, 3H-thymidine incorporation, 10 donors. As to the method: -003, -005 and -024 were tested in an assay essentially as described in Ausiello et al., Tissue antigens 56, 538-547 (2000). Briefly, PBMCs from healthy donors were cultured at 1×10^5 cells/well in flat bottom 96-well plates in the presence of antibodies (final concentration: 1.1-3.3-10-30 μg/ml) in 200 μl RPMI^++. Stimulation of cells with IL-15 (at 333 ng/ml; Amgen Inc., Thousand Oaks, CA, USA) was used as positive control. After a 4 day incubation at 37° C., 30 μl ^3H-thymidine (16.7 μCi/ml) was added, and culture was continued O/N. ^3H-thymidine incorporation was assessed using a […] (Packard Instruments, Meriden, DT, USA), according to the manufacturer's instructions. Data are shown as the mean cpm (±SEM) of PBMCs obtained from 10 donors.
On the technique in general: Incorporation of labelled thymidine or its analogues reports DNA synthesis.

A further assay concerns Daudi-luc cells. Nature of the assay: Binding to Daudi-luc cells by flow cytometry. The settings on record: for binding to Daudi-luc cells: in words. As to the method:
After harvesting and counting, Daudi-luc cells, CHO cells transfected with CD38 and control CHO cells were resuspended in PBS (1×10^6 cells/ml). Then, cells were put in 96-well V-bottom plates (100 μl/well) and washed twice in PBS-BSA (PBS supplemented with 0.1% BSA and 0.02% Na-azide). Thereafter, 50 μl antibody solution in PBS-BSA was added to the cells (4° C., 30 min). After washing three times in PBS-BSA, 50 μl (1:400 dilution) of rabbit anti-human IgG-FITC in PBS-BSA was added (4° C. in the dark, 30 min). Cells were washed three times and specific binding of CD38-antibodies to CHO-CD38 and Daudi-luc cells was detected by flow cytometry. HuMab-KLH (a human monoclonal antibody against KLH (keyhole limpet haemocyanin) generated by Genmab B.V., Utrecht, The Netherlands by use of the immunization protocols described elsewhere herein) was used as a control. […] No binding to control CHO cells is observed (data not shown).
(In general: Flow cytometry measures light scatter and fluorescence of single cells or particles in a stream.)

Assay [4] has as its system PBMCs. Nature of the assay: Induction of release of IFN-γ by PBMC. It counts as cell-based, human. The settings on record: 20 μg/ml antibody and 1 μg/ml OKT-3, 9 donors. As to the method:
as §1, with “and 1 μg/ml OKT-3 (Sanquin, Amsterdam,” for “and 10 ng/ml LPS (Sigma-Aldrich Chemie, Zwijndrecht,”, “The IFN-γ” for “The IL-6”, “ELISA (IFN-γ” for “ELISA (IL-6”, “from 9” for “from 7”

The subject of assay [5] is tumor cells obtained from different MM patients. Nature of the assay: Complement-dependent cytotoxicity of tumor cells from MM patients. Particulars: in words. It counts as cell-based, human.

For “-005: human monoclonal IgG1 anti-CD38 antibody, VL region SEQ ID No:12 and VH region SEQ ID No:17”, the “ADCC of fresh multiple myeloma tumor cells” value in assay [1] was “ADCC is induced”. Moreover, the “release of IL-6” value with PBMCs [2] was “does not induce release of significant IL-6 levels”. In the assay on PBMCs [3], the “proliferation of PBMCs” value was “do not induce significant proliferation”. Further, the “EC50 Daudi-luc” value in the assay with Daudi-luc cells (binding, flow cytometry) is 0.09 µg/mL. Further, the “binding to Daudi-luc cells” value in the assay with Daudi-luc cells was “bind”. Besides, the “release of IFN-γ” value in the assay with PBMCs [4] is “does not induce release of detectable IFN-γ levels”. Moreover, the “CDC-mediated lysis of MM patient tumor cells” value in assay [5] is “CDC-mediated lysis is observed”.

B1: -024: human monoclonal IgG1 anti-CD38 antibody, VL region SEQ ID No:22 and VH region SEQ ID No:27 (antibody, listed as Homo sapiens, V domains shown)
VH: EVQLVQSGAEVKKPGESLKISCKGSGYSFSNYWIGWVRQMPGKGLEWMGIIYPHDSDARYSPSFQGQVTFSADKSISTAYLQWSSLKASDTAMYYCARHVGWGSRYWYFDLWGRGTLVTVSS
VL: EIVLTQSPATLSLSPGERATLSCRASQSVSSYLAWYQQKPGQAPGLLIYDASNRASGIPARFSGSGSGTDFTLTISSLEPEDFAVYYCQQRSNWPLTFGGGTKVEIK
With B1, the “ADCC of fresh multiple myeloma tumor cells” value in assay [1] was “ADCC is induced”. Further, in the assay with PBMCs [2], the “release of IL-6” value was “did not induce release of significant IL-6 levels”. Moreover, the “proliferation of PBMCs” value in the assay with PBMCs [3] is reported as “did not induce significant proliferation”. Besides, in the assay on Daudi-luc cells, the “binding to Daudi-luc cells” value is “bind”. In addition, the “release of IFN-γ” value in the assay with PBMCs [4] is given as “did not induce release of significant IFN-γ levels”. For the same molecule, the “CDC-mediated lysis of MM patient tumor cells” value in assay [5] was “induced lysis”.

(Values after patent publication US20240165226A1, “COMBINATION TREATMENT OF CD38-EXPRESSING TUMORS” (GENMAB A/S, priority 2006, published 2024).)
